Earlier results in US10889569B2, “Condensed ring group azacyclobutyl triazole derivative, preparation method therefor and use thereof in medicine” (Jiangsu Hengrui Medicine Co., Ltd., priority 2016, dated 2021).

Key:
oxytocin receptor [1] = target: T1, oxytocin receptor (Homo sapiens (Human), UniProt P30559); conditions: cited from earlier work
oxytocin receptor [2] = target: oxytocin receptor (Rattus norvegicus (Rat), UniProt P70536); conditions: intraventricular and intrathecal injection; cited from earlier work
Chain of oxytocin receptor (Rattus norvegicus (Rat), UniProt P70536) (P70536 whole entry): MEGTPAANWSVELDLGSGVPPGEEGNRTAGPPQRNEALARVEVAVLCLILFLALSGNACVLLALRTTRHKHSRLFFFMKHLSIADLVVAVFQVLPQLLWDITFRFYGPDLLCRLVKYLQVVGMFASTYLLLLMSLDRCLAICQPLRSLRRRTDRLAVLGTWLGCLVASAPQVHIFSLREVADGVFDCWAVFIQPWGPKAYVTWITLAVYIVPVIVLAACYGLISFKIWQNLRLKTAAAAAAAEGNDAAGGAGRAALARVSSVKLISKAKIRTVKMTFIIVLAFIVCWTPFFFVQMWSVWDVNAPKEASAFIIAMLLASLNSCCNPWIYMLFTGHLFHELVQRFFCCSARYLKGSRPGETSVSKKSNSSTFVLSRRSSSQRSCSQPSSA

oxytocin receptor [3] = target: T1, oxytocin receptor; conditions: orally 400 mg or 800 mg, patient with prospermia, phase II; cited from earlier work

T1 sequence (P30559 whole entry): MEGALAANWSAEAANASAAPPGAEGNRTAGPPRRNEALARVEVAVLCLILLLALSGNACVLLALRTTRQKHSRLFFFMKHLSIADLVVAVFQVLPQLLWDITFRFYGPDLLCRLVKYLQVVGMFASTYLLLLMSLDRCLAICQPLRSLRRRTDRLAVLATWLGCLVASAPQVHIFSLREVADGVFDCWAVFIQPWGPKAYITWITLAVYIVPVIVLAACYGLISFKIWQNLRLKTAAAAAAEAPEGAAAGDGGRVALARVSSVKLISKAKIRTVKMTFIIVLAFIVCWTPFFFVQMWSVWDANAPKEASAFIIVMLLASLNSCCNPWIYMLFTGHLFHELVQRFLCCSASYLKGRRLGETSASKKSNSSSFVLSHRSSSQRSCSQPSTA

SMILES	Efficacy after oral administration in phase II clinical trials (oxytocin receptor [1])	Ejaculation behavior of rats (oxytocin receptor [2])	Vaginal ejaculation latency (oxytocin receptor [3])
CC[C@H](C)[C@@H]1C(=O)N[C@H](C2Cc3ccccc3C2)C(=O)N1[C@@H](C(=O)N1CCOCC1)c1ccc(C)nc1C [GSK557296]	did not show corresponding efficacy	can effectively inhibit the ejaculation behavior of rats only when being administered at specific central sites	
COCc1nnc(N2CC(Oc3ccc(F)cc3Cl)C2)n1-c1ccc(OC)nc1 [IX-01]			can significantly prolong the vaginal ejaculation latency of the patient
